Test results: ChEMBL document CHEMBL4483862, “Open-source discovery of chemical leads for next-generation chemoprotective antimalarials” (2018)
pIC50: −log10 of the molar value.

System: Plasmodium berghei
Assay: Luciferase/luciferin-expressing antifolate-resistant parasites were used to infect a culture of HepG2 cells that were pre-incubated with compounds. Infected hepatocytes emit light due to the luciferase reaction. Assay results are presented as the percent inhibition of light emission compared to control. […]
Format: functional
Details: sporozoite; for IC90: read-out: LUCIFERASE INFECTION ASSAY - IC90
[1] = read-out: LUCIFERASE INFECTION ASSAY - IC50

Compound	pIC50 [1]	IC90 [µM]	also measured
S=c1[nH]nc(-c2cccnc2Oc2ccccc2)n1-c1ccc(Cl)c(Cl)c1	< 5.10	> 7.95	
CC(c1ccc(-n2cncn2)cc1)N(C)c1ncnc2ccsc12 (stereo not drawn)		> 10	pIC50 (HEPG2TOX_HILL_SLOPE 9.54, HEPG2TOX_R_SQUARED 0.431, PBLUC_HILL_SLOPE 1.32, 1.56, PBLUC_R_SQUARED 0.780, 0.216, read-out: LUCIFERASE INFECTION ASSAY - IC50): 5.43
CCC(=O)N1CCC1(C)C(=O)NCc1ccc2c(c1)OCO2 (stereo not drawn)	< 4.97	> 10.8	
COC(=O)c1ccc(/C=C2\Oc3cc(O)cc(C)c3C2=O)cc1		> 10.6	pIC50 (FFLUC_HILL_SLOPE 2.39, FFLUC_R_SQUARED 0.815, read-out: LUCIFERASE INFECTION ASSAY - IC50): < 4.97
Cc1ccnc(NC(c2cccc(C)n2)c2ccc3cccnc3c2O)c1 (stereo not drawn)		> 9.26	pIC50 (FFLUC_HILL_SLOPE 20.2, FFLUC_R_SQUARED 0.523, HEPG2TOX_HILL_SLOPE 12.4, HEPG2TOX_R_SQUARED 0.193, PBLUC_HILL_SLOPE 13.3, PBLUC_R_SQUARED 0.0907, read-out: LUCIFERASE INFECTION ASSAY - IC50): 5.10
CCn1c(NC(=O)C2=NOC(c3ccccc3)C2)nc2ccccc21 (stereo not drawn)	5.47	3.82	
Oc1ccc(C2=CCN(c3ncnc4ccccc34)CC2)cc1		2.89	pIC50 (HEPG2TOX_HILL_SLOPE 0.526, HEPG2TOX_R_SQUARED 0.691, PBLUC_HILL_SLOPE 1.57, PBLUC_R_SQUARED 0.66, read-out: LUCIFERASE INFECTION ASSAY - IC50): 6.15
CC(Sc1nncs1)C(=O)Nc1cc([N+](=O)[O-])ccc1Cl (stereo not drawn)	< 5.00	> 10	
COCCNC(=O)C1(C)CCCN(C(=O)c2ccc(OC)cc2OC)C1 (stereo not drawn)	< 5.04	> 9.06	
O=[N+]([O-])c1ccc(CSc2nc3cc(Cl)c(F)cc3[nH]2)cc1	< 5.10	> 7.88	
c1ccc2cc(-c3csc(Nc4cccc5ccccc45)n3)ccc2c1	< 5.03	> 9.36	
Clc1ccccc1C(CNc1ncnc2sccc12)N1CCCC1 (stereo not drawn)		> 10	pIC50 (HEPG2TOX_HILL_SLOPE 0.371, HEPG2TOX_R_SQUARED 0.706, PBLUC_HILL_SLOPE 3.78, PBLUC_R_SQUARED 0.473, read-out: LUCIFERASE INFECTION ASSAY - IC50): 5.15
Cc1cc(=O)oc2cc(Oc3nc(CN4CCOCC4)nc4sc5c(c34)CCCC5)c(Cl)cc12		> 10	pIC50 (HEPG2TOX_HILL_SLOPE 1.03, HEPG2TOX_R_SQUARED 0.724, read-out: LUCIFERASE INFECTION ASSAY - IC50): < 5.00
CNc1snc(C)c1C(=O)Nc1ccc(OC)c(Cc2ccccc2)c1		1.1	pIC50 (PBLUC_HILL_SLOPE 16.3, PBLUC_R_SQUARED 0.619, read-out: LUCIFERASE INFECTION ASSAY - IC50): 6.02
CC1(c2ccc(F)cc2)NC(=O)N(Cc2csc(-c3ccc(F)cc3)n2)C1=O (stereo not drawn)		> 10	pIC50 (PBLUC_HILL_SLOPE 12.9, PBLUC_R_SQUARED 0.121, read-out: LUCIFERASE INFECTION ASSAY - IC50): 5.03
Cc1ccc(C2CC(c3cccs3)=NN2c2ccc(C=C(C#N)C#N)cc2)o1 (stereo not drawn)		> 10	pIC50 (FFLUC_HILL_SLOPE 2.65, FFLUC_R_SQUARED 0.905, HEPG2TOX_HILL_SLOPE 1.94, HEPG2TOX_R_SQUARED 0.705, PBLUC_HILL_SLOPE 0.92, PBLUC_R_SQUARED 0.729, read-out: LUCIFERASE INFECTION ASSAY - IC50): 5.77
CC(=O)Nc1ccc(-c2ccnc3n[nH]c(-c4ccsc4)c23)cc1		8.76	pIC50 (HEPG2TOX_HILL_SLOPE 11.6, HEPG2TOX_R_SQUARED 0.801, PBLUC_HILL_SLOPE 2.91, PBLUC_R_SQUARED 0.114, read-out: LUCIFERASE INFECTION ASSAY - IC50): 5.39
COc1ccc(/C=C2\N=C(SCC(=O)O)N(Cc3ccccc3)C2=O)cc1		0.545	pIC50 (PBLUC_HILL_SLOPE 72.9, PBLUC_R_SQUARED 0.433, read-out: LUCIFERASE INFECTION ASSAY - IC50): 6.28
COc1ccccc1CNC(=O)NC(C)c1ccc(Cl)cc1Cl (stereo not drawn)	< 5.00	> 10	
CN1/C(=C\C=N\NC(=O)c2cccs2)C(C)(C)c2ccccc21		8.4	pIC50 (PBLUC_HILL_SLOPE 3.23, PBLUC_R_SQUARED 0.426, read-out: LUCIFERASE INFECTION ASSAY - IC50): 5.37
COc1ccccc1NC(=O)/C=c1\s/c(=C\c2cnn(-c3ccccc3)c2)c(=O)n1C		0.632	pIC50 (HEPG2TOX_HILL_SLOPE 1.6, HEPG2TOX_R_SQUARED 0.888, PBLUC_HILL_SLOPE 1.61, PBLUC_R_SQUARED 0.941, read-out: LUCIFERASE INFECTION ASSAY - IC50): 6.79
Cc1ccc(C)c(-c2csc(NC(=O)CCNC(=O)c3ccsc3)n2)c1		5.37	pIC50 (PBLUC_HILL_SLOPE 433, PBLUC_R_SQUARED 0.479, read-out: LUCIFERASE INFECTION ASSAY - IC50): 5.27

Compound	pIC50 [1]	IC90 [µM]	also measured
CC1CC(C)CN(C2=CC(=[N+]3CCCC3)CC(C)(C)C2)C1 (stereo not drawn)		2.02	pIC50 (HEPG2TOX_HILL_SLOPE 0.983, HEPG2TOX_R_SQUARED 0.985, PBLUC_HILL_SLOPE 2.02, PBLUC_R_SQUARED 0.664, read-out: LUCIFERASE INFECTION ASSAY - IC50): 6.17
O=[N+]([O-])c1ccc(Oc2c(Cl)cc(S(=O)(=O)N3CCCCC3)cc2Cl)c(Cl)c1		> 7.09	pIC50 (PBLUC_HILL_SLOPE 7.39, PBLUC_R_SQUARED 0.0349, read-out: LUCIFERASE INFECTION ASSAY - IC50): < 5.15
C=C(C)CNC(=S)N/N=C1\C(=O)Nc2ccc([N+](=O)[O-])cc21		> 10	pIC50 (FFLUC_HILL_SLOPE 2.67, FFLUC_R_SQUARED 0.288, PBLUC_HILL_SLOPE 15.8, PBLUC_R_SQUARED 0.124, read-out: LUCIFERASE INFECTION ASSAY - IC50): 5.05
c1ccc(Sc2ncnc3sccc23)nc1		6.79	pIC50 (PBLUC_HILL_SLOPE 117, PBLUC_R_SQUARED 0.0329, read-out: LUCIFERASE INFECTION ASSAY - IC50): 5.18
O=C(Nc1ccc(F)c(Cl)c1)c1ccc(F)c(Cl)c1	< 4.96	> 10.9	
CCN(CC)S(=O)(=O)c1ccc2c(c1)CCN2Cc1nc2ccccc2c(=O)n1C		> 10	pIC50 (HEPG2TOX_HILL_SLOPE 0.751, HEPG2TOX_R_SQUARED 0.213, PBLUC_HILL_SLOPE 2.58, PBLUC_R_SQUARED 0.526, read-out: LUCIFERASE INFECTION ASSAY - IC50): 5.22
COc1ccc(OC)c(S(=O)(=O)N2[C@@H]3CC[C@@H](C3)[C@H]2c2nc3cccc(OCc4ccccc4)c3[nH]2)c1		> 10	pIC50 (PBLUC_HILL_SLOPE 10.6, PBLUC_R_SQUARED 0.0638, read-out: LUCIFERASE INFECTION ASSAY - IC50): < 5.00
CC(C(OC(=O)c1ccc(S(=O)(=O)N(C)C)cc1)c1ccccc1)N(C)S(=O)(=O)c1ccc(Cl)cc1 (stereo not drawn)		> 10	pIC50 (FFLUC_HILL_SLOPE 14.7, FFLUC_R_SQUARED 0.389, PBLUC_HILL_SLOPE 2.36, PBLUC_R_SQUARED 0.776, read-out: LUCIFERASE INFECTION ASSAY - IC50): 5.14
Cc1cc2oc(=O)cc(CN(Cc3ccc(C(=O)NC4CC4)cc3)Cc3ccco3)c2cc1C		1.83	pIC50 (PBLUC_HILL_SLOPE 3.23, PBLUC_R_SQUARED 0.675, read-out: LUCIFERASE INFECTION ASSAY - IC50): 6.03
CN(C)C(CNc1cc(C(=O)NC2CC2)c2ccccc2n1)Cc1ccccc1 (stereo not drawn)	< 5.00	> 10	
CN(C)CCOCCOc1c(Cl)cc(Cl)cc1Cl	< 5.00	> 10	
CC1(C)C2CCC1(C)C(NC(=O)COc1ccc(Br)cc1Cl)C2 (stereo not drawn)		8.17	pIC50 (HEPG2TOX_HILL_SLOPE 4.37, HEPG2TOX_R_SQUARED 0.564, PBLUC_HILL_SLOPE 4.64, PBLUC_R_SQUARED 0.01, read-out: LUCIFERASE INFECTION ASSAY - IC50): 5.29
O=C(CCN1CCN(C(c2ccccc2)c2ccccc2)CC1)NNC(=O)c1ccc(I)cc1	< 5.00	> 10	
O=C1NC2(CCOc3ccccc32)C(=O)N1CC(=O)N1N=C(c2ccc(Cl)cc2)CC1c1ccco1 (stereo not drawn)		> 10	pIC50 (PBLUC_HILL_SLOPE 2.24, PBLUC_R_SQUARED 0.678, read-out: LUCIFERASE INFECTION ASSAY - IC50): 5.27
CC(C)(C)c1ccc(NC(=O)c2cnccn2)cc1		8.29	pIC50 (FFLUC_HILL_SLOPE 1.15, FFLUC_R_SQUARED 0.77, PBLUC_HILL_SLOPE 0.39, PBLUC_R_SQUARED 0.583, read-out: LUCIFERASE INFECTION ASSAY - IC50): 7.53
COc1ccc(OC)c(C(C)Nc2ncnc3sccc23)c1 (stereo not drawn)	5.37	> 10	
O=C(CN1CCN(Cc2nc3ccccc3s2)CC1)N1CCc2ccccc21	< 5.00	> 10	
CN1CCCN(c2ccc(NC(=O)OCC(F)(F)F)cc2F)CC1	< 5.00	> 10	
COc1ccc(-c2cn3c(-c4ccc(OC)nc4)cnc3cn2)cn1		> 9.9	pIC50 (PBLUC_HILL_SLOPE 11.1, PBLUC_R_SQUARED 0.0252, read-out: LUCIFERASE INFECTION ASSAY - IC50): 5.02
COc1cc(C)c(Nc2cc(-c3ccc(N(C)C)cc3)ncn2)cc1OC		0.48	pIC50 (HEPG2TOX_HILL_SLOPE 1.1, HEPG2TOX_R_SQUARED 0.88, PBLUC_HILL_SLOPE 3.68, PBLUC_R_SQUARED 0.773, read-out: LUCIFERASE INFECTION ASSAY - IC50): 6.58
Cc1cccc2c(=O)nc(CSc3ncnc4sc(-c5ccccc5)cc34)[nH]c12		> 10	pIC50 (HEPG2TOX_HILL_SLOPE 2.96, HEPG2TOX_R_SQUARED 0.569, read-out: LUCIFERASE INFECTION ASSAY - IC50): < 5.00
O=C(CN1C(=O)NC2(CCCCC2)C1=O)NC1CCS(=O)(=O)C1 (stereo not drawn)	< 5.00	> 10	
